Biological target: HCV RNA-dependent RNA polymerase NS5B (Δ21) (Hepatitis C virus genotype 1b, UniProt P26663)
Assay: Assay for HCV RNA-dependent RNA polymerase activity (SPA, [3H]-GTP incorporation)
Format: biochemical
Method: Assay for HCV RNA-dependent RNA Polymerase Activity
Inhibitory activity of the present compounds against HCV RNA-dependent RNA polymerase was assayed according to the methods disclosed in U.S. Patent Application U.S.2004/038993, content of which is incorporated herein by reference; and those described in Ferrari, E.; Wright-Minogue, J.; Fang, J. W. S.; Baroudy, B. M.; Lau, J. Y. N.; Hong, Z. J. Virol. 1999, 73, 1649.
Briefly, 50 μl reactions containing 20 mM HEPES (pH 7.3), 7.5 mM DTT, 20 units/ml RNasIN, 0.5 ug/ml biotinylated oligoG12, 5 μg/ml polyC, 5 μM GTP, 20 μCi/ml [^3H]-GTP, 10 mM MgCl2, 60 mM NaCl, 100 μg/ml BSA, and 50 nM NS5B (Δ21) were incubated at room temperature for three hours in 96-well plates with or without test compounds. Assay was terminated by the addition of 50 μl 10 mg/ml streptavidin-coated SPA beads supplemented with 100 mM EDTA, and the incorporation of labeled GTP determined by a TopCount Scintillation Counter. IC50 values were calculated from single experiments using 11 serial 2-fold dilutions (0.05–50 μM), and data were considered reliable only when the IC50 value of a positive internal control was within standard deviation range.

Chain of HCV RNA-dependent RNA polymerase NS5B (Δ21) (P26663 2420-2989, stated change not applied): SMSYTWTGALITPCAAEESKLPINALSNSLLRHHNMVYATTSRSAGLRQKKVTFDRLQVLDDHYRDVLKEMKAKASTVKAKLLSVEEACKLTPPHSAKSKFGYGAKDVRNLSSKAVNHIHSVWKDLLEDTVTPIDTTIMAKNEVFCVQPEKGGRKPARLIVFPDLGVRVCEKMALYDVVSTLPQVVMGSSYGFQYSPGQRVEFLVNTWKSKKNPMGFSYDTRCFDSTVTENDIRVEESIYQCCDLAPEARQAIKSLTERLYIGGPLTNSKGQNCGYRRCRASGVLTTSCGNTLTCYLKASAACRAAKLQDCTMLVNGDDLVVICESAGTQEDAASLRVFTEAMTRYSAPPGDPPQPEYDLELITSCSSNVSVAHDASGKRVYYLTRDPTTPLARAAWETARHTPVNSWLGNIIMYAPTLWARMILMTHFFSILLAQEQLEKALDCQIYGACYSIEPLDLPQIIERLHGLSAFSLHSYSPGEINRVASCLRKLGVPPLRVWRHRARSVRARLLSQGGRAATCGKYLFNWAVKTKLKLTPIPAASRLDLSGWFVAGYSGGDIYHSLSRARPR

O=C(Cn1nc(C(=O)O)cc1OCc1ccccc1)N[C@H]1CCCC[C@@H]1OCc1ccccc1 [Compound 1]
IC50: 43 µM

CCOc1ccccc1COc1cc(C(=O)O)nn1CC(=O)N[C@H]1CCCC[C@@H]1OCc1ccccc1 [Compound 2]
IC50: 1 µM

O=C(Cn1nc(C(=O)O)cc1OCc1ccccc1-c1ccccc1)N[C@H]1CCCC[C@@H]1OCc1ccccc1 [Compound 3]
IC50: 1 µM

O=C(Cn1nc(C(=O)O)cc1OCc1ccccc1CS(=O)(=O)c1ccccc1)N[C@H]1CCCC[C@@H]1OCc1ccccc1 [Compound 4]
IC50: 32 µM

O=C(Cn1nc(C(=O)O)cc1OCc1ccccc1)Nc1ccccc1OCc1ccccc1 [Compound 5]
IC50: 11 µM

CCOc1ccccc1COc1cc(C(=O)O)nn1CC(=O)Nc1ccccc1OCc1ccccc1 [Compound 6]
IC50: 40 µM

O=C(Cn1nc(C(=O)O)cc1OCc1ccccc1-c1ccccc1)Nc1ccccc1OCc1ccccc1 [Compound 7]
IC50: 11 µM

O=C(Cn1nc(C(=O)O)cc1OCc1ccccc1CS(=O)(=O)c1ccccc1)Nc1ccccc1OCc1ccccc1 [Compound 8]
IC50: 0.8 µM

O=C(Cn1nc(C(=O)O)cc1OCc1ccccc1-c1ccc(Cl)cc1)N[C@H]1CCCC[C@@H]1OCc1ccccc1 [Compound 10]
IC50: 0.064 µM

O=C(Cn1nc(C(=O)O)cc1OCc1cc(F)cc(C(F)(F)F)c1)N[C@H]1CCCC[C@@H]1OCc1ccccc1 [Compound 11, 1-[((1S, 2S)-2-Benzyloxy-cyclohexylcarbamoyl)-methyl]-5-(3-fluoro-5-trifluoromethyl-benzyloxy)-1H-pyrazole-3-carboxylic acid]
IC50: 1.8 µM

O=C(Cn1nc(C(=O)O)cc1OCc1cc(Cl)ccc1Cl)N[C@H]1CCCC[C@@H]1OCc1ccccc1 [Compound 12]
IC50: 3.9 µM

O=C(Cn1nc(C(=O)O)cc1OCc1ccccc1Cl)N[C@H]1CCCC[C@@H]1OCc1ccccc1 [Compound 13]
IC50: > 12.5 µM

O=C(Cn1nc(C(=O)O)cc1OCc1ccccc1F)N[C@H]1CCCC[C@@H]1OCc1ccccc1 [Compound 14]
IC50: > 12.5 µM

O=C(Cn1nc(C(=O)O)cc1OCc1ccc(Cl)cc1)N[C@H]1CCCC[C@@H]1OCc1ccccc1 [Compound 15]
IC50: 2.4 µM

Cc1cccc(COc2cc(C(=O)O)nn2CC(=O)N[C@H]2CCCC[C@@H]2OCc2ccccc2)c1F [Compound 16]
IC50: 8.4 µM

O=C(Cn1nc(C(=O)O)cc1OCc1ccc(F)cc1Cl)N[C@H]1CCCC[C@@H]1OCc1ccccc1 [Compound 17]
IC50: 9.5 µM

O=C(Cn1nc(C(=O)O)cc1OCc1cccc(C(F)(F)F)c1)N[C@H]1CCCC[C@@H]1OCc1ccccc1 [Compound 18]
IC50: 2.1 µM

O=C(Cn1nc(C(=O)O)cc1OCc1ccc(C(F)(F)F)cc1)N[C@H]1CCCC[C@@H]1OCc1ccccc1 [Compound 19]
IC50: 0.62 µM

O=C(Cn1nc(C(=O)O)cc1OCc1ccccc1C(F)(F)F)N[C@H]1CCCC[C@@H]1OCc1ccccc1 [Compound 20]
IC50: 2.9 µM

O=C(Cn1nc(C(=O)O)cc1OCc1ccc(F)cc1)N[C@H]1CCCC[C@@H]1OCc1ccccc1 [Compound 21]
IC50: 13 µM

Cc1ccc(COc2cc(C(=O)O)nn2CC(=O)N[C@H]2CCCC[C@@H]2OCc2ccccc2)cc1F [Compound 22]
IC50: 3 µM

O=C(Cn1nc(C(=O)O)cc1OCc1cc(F)cc(F)c1)N[C@H]1CCCC[C@@H]1OCc1ccccc1 [Compound 23]
IC50: 12 µM

O=C(Cn1nc(C(=O)O)cc1OCc1cccc(F)c1F)N[C@H]1CCCC[C@@H]1OCc1ccccc1 [Compound 24]
IC50: > 12.5 µM

O=C(Cn1nc(C(=O)O)cc1OCc1ccc(F)c(F)c1)N[C@H]1CCCC[C@@H]1OCc1ccccc1 [Compound 25]
IC50: 4.3 µM

O=C(Cn1nc(C(=O)O)cc1OCc1c(F)cccc1F)N[C@H]1CCCC[C@@H]1OCc1ccccc1 [Compound 26]
IC50: > 50 µM

O=C(Cn1nc(C(=O)O)cc1OCc1cccc(Cl)c1)N[C@H]1CCCC[C@@H]1OCc1ccccc1 [Compound 27]
IC50: 8.6 µM

O=C(Cn1nc(C(=O)O)cc1OCc1cccc(F)c1)N[C@H]1CCCC[C@@H]1OCc1ccccc1 [Compound 28]
IC50: > 12.5 µM

O=C(Cn1nc(C(=O)O)cc1OCc1ccc(F)cc1F)N[C@H]1CCCC[C@@H]1OCc1ccccc1 [Compound 29]
IC50: > 12.5 µM

O=C(Cn1nc(C(=O)O)cc1OCc1cccc(C(F)(F)F)c1F)N[C@H]1CCCC[C@@H]1OCc1ccccc1 [Compound 30]
IC50: 2 µM

O=C(Cn1nc(C(=O)O)cc1OCc1ccc(F)c(C(F)(F)F)c1)N[C@H]1CCCC[C@@H]1OCc1ccccc1 [Compound 31]
IC50: 1.4 µM

O=C(Cn1nc(C(=O)O)cc1OCc1ccc(C(F)(F)F)c(F)c1)N[C@H]1CCCC[C@@H]1OCc1ccccc1 [Compound 32]
IC50: 0.28 µM

O=C(Cn1nc(C(=O)O)cc1OCc1cc(F)ccc1C(F)(F)F)N[C@H]1CCCC[C@@H]1OCc1ccccc1 [Compound 33]
IC50: 2.9 µM

O=C(Cn1nc(C(=O)O)cc1OCc1cc(C(F)(F)F)ccc1F)N[C@H]1CCCC[C@@H]1OCc1ccccc1 [Compound 34]
IC50: 6.1 µM

O=C(Cn1nc(C(=O)O)cc1OCc1cccc(Cl)c1F)N[C@H]1CCCC[C@@H]1OCc1ccccc1 [Compound 35]
IC50: 9.2 µM

O=C(Cn1nc(C(=O)O)cc1OCc1ccc(Cl)c(Cl)c1)N[C@H]1CCCC[C@@H]1OCc1ccccc1 [Compound 36]
IC50: 0.86 µM

O=C(Cn1nc(C(=O)O)cc1OCc1ccc(C(F)(F)F)cc1F)N[C@H]1CCCC[C@@H]1OCc1ccccc1 [Compound 37]
IC50: 6.2 µM

O=C(Cn1nc(C(=O)O)cc1OCc1ccc(F)cc1C(F)(F)F)N[C@H]1CCCC[C@@H]1OCc1ccccc1 [Compound 38]
IC50: 2.6 µM

O=C(Cn1nc(C(=O)O)cc1OCc1cccc(Oc2ccccc2F)c1)N[C@H]1CCCC[C@@H]1OCc1ccccc1 [Compound 39]
IC50: 2.2 µM

O=C(Cn1nc(C(=O)O)cc1OCc1cc(F)ccc1C(F)(F)F)N[C@H]1CCCC[C@@H]1OCc1ccccc1 [Compound 40]
IC50: 3.1 µM

O=C(Cn1nc(C(=O)O)cc1OCc1cc(Cl)ccc1F)N[C@H]1CCCC[C@@H]1OCc1ccccc1 [Compound 41]
IC50: 7.8 µM

O=C(Cn1nc(C(=O)O)cc1OCc1ccc(F)c(Cl)c1)N[C@H]1CCCC[C@@H]1OCc1ccccc1 [Compound 42]
IC50: 13 µM

Cc1cc(COc2cc(C(=O)O)nn2CC(=O)N[C@H]2CCCC[C@@H]2OCc2ccccc2)ccc1F [Compound 43]
IC50: 3.1 µM

O=C(Cn1nc(C(=O)O)cc1OCc1cccc(F)c1C(F)(F)F)N[C@H]1CCCC[C@@H]1OCc1ccccc1 [Compound 44]
IC50: 4.5 µM

O=C(Cn1nc(C(=O)O)cc1OCc1ccc2ccccc2c1)N[C@H]1CCCC[C@@H]1OCc1ccccc1 [Compound 45]
IC50: 6.8 µM

O=C(Cn1nc(C(=O)O)cc1OCc1cc(F)ccc1F)N[C@H]1CCCC[C@@H]1OCc1ccccc1 [Compound 46]
IC50: > 12.5 µM

COc1cccc(COc2cc(C(=O)O)nn2CC(=O)N[C@H]2CCCC[C@@H]2OCc2ccccc2)c1 [Compound 47]
IC50: > 50 µM

O=C(Cn1nc(C(=O)O)cc1OCc1cccc(C(=O)O)c1)N[C@H]1CCCC[C@@H]1OCc1ccccc1 [Compound 48]
IC50: > 50 µM

COc1cccc(-c2ccccc2COc2cc(C(=O)O)nn2CC(=O)N[C@H]2CCCC[C@@H]2OCc2ccccc2)c1 [Compound 49]
IC50: 3.6 µM

COc1ccc(-c2ccccc2COc2cc(C(=O)O)nn2CC(=O)N[C@H]2CCCC[C@@H]2OCc2ccccc2)cc1 [Compound 50, 1-[(2-benzyloxy-cyclohexylcarbamoyl)-methyl]-5-(4′-methoxy-biphenyl-2-ylmethoxy)-1H-pyrazole-3-carboxylic acid]
IC50: 0.38 µM

Reference: US7115749B2, “Substituted 5-oxo pyrazoles and [1,2,4]triazoles as antiviral agents” (priority 2004, dated 2006)
